Assay results published in paper PMC8805583, “Discovery of Herbacetin as a Novel SGK1 Inhibitor to Alleviate Myocardial Hypertrophy” (Advanced Science, 2021).

Tests used:
[1] = molecular target: T1, G protein-coupled receptor kinase 3 (GRK3) (Homo sapiens, UniProt P35626); test: KinaseProfiler Assay, AGC kinase panel; type: biochemical; settings: HBT 10 µmol
T1 construct: purchased Eurofins Discovery (KinaseProfiler Service)
T1 sequence (P35626 1-688): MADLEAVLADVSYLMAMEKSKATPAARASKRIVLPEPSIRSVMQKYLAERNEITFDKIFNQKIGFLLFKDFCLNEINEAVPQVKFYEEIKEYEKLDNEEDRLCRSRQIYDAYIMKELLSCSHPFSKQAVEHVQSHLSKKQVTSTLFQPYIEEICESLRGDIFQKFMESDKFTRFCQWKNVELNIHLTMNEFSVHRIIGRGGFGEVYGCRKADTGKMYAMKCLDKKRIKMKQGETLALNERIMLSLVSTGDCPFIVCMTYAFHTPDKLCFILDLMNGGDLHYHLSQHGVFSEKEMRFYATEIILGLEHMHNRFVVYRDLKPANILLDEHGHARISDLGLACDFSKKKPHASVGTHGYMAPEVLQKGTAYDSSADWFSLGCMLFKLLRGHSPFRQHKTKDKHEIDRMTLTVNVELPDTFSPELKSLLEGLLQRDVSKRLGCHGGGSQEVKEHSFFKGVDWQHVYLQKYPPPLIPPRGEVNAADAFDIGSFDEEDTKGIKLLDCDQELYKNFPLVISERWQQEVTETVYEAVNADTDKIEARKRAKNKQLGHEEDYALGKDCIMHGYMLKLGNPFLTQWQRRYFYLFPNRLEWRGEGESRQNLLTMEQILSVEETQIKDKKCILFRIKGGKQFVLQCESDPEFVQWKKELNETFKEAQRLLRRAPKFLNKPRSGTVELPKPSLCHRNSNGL
Text: (§1) 20 structurally related flavonoids of HBT were collected, which differ in the number and position of —OH groups, and examined for their effects on SGK1 activity. Based on the docking prediction, the —OH group at the C‐4’ position of HBT was required for the interaction with the key SGK1 residue D177. Therefore, the 20 flavonoids were divided into two classes according to the presence or absence of an —OH group at C‐4’ (Figure 4B). At both tested concentrations, flavonoids with an —OH group at C‐4’ (class A) inhibited SGK1 more than those without an —OH group at C‐4’ (class B) (Figure 4C). The IC50 of each compound is listed in Figure 4D; and Figure S6 (Supporting Information). […] Conversely, the absence of an ‐OH group at C‐8 led to a greater than 10‐fold reduction in flavonoid SGK1 inhibitory activity, as shown by the performance of A1 or A4. […] The inhibitory activity of HBT (10 µmol) against 28 human AGC kinases was tested by KinaseProfiler Assay (Eurofins Discovery). The percentage of HBT's inhibitory activity against each kinase was normalized by the respective positive inhibitors of AGC kinases.
(§2) The initial crystal structures of SGK1 (PDB entry: 3HDN, 3HDM, and 2R5T) were obtained from the Protein Data Bank (PDB). The prepared inhibitors were then docked by Glide with the extra precision (XP) scoring mode to estimate the binding affinity for each protein–ligand complex. The detailed process of docking has been described previously.^[ [46] ^] HEK293T cells were transfected with SGK1 mutant plasmids. After 24 h, cells were lysed and immunoprecipitated with anti‐FLAG antibody and beads. Immune complexes were washed with kinase buffer and incubated in kinase buffer with substrate peptide for 1 h at 30 ℃ followed by LC/MS measurement as described above. KINOMEscan Profiling Service and KinaseProfiler Service Assay were provided by Eurofins Discovery.

[2] = molecular target: T2, cGMP-dependent type II protein kinase (PRKG2) (Homo sapiens, UniProt Q13237); test: KinaseProfiler Assay, AGC kinase panel; type: biochemical; settings: HBT 10 µmol; normalized by positive inhibitors
T2 construct: purchased Eurofins Discovery (KinaseProfiler Service)
T2 sequence (Q13237 1-762): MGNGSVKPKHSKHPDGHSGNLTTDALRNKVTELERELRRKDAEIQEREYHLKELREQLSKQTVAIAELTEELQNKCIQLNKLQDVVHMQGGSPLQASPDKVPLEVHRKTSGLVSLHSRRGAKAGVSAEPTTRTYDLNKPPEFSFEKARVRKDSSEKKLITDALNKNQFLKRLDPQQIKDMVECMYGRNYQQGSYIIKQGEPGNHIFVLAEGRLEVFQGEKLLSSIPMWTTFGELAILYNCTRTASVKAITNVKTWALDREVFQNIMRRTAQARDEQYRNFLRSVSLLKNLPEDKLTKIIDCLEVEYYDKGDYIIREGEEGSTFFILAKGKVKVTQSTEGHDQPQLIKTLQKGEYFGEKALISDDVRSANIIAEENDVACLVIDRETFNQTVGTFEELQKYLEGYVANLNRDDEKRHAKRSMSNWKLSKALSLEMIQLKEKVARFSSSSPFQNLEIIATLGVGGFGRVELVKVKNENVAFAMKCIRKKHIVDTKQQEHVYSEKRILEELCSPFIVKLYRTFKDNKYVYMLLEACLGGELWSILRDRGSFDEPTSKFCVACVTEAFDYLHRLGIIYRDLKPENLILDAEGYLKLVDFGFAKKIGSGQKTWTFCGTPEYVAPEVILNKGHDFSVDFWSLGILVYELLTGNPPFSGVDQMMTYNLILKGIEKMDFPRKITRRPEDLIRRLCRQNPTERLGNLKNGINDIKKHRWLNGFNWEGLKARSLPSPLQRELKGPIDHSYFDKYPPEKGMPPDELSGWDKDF
Text: as §1, §2

Q: How did the “inhibitory effect on GRK3” value [1] turn out when `O=c1c(O)c(-c2ccc(O)cc2)oc2c(O)c(O)cc(O)c12` [HBT, herbacetin] was run?
A: high inhibitory effects

Q: What about the “inhibitory activity on PRKG2” value [2] of the same molecule?
A: 45%
